Measurements: patent US20140206624A1, “TREATMENT OF LEUKEMIA” (THE BRIGHAM AND WOMEN'S HOSPITAL, INC., priority 2011, published 2014)

Test system: L-GMP population
Assay: L-GMP and mature myeloid cell proportion in leukemic BM
Format: in vivo, mouse
Settings: seven days following pI-pC, Mx1-Cre+
Experimental: (§1) Seven days following the administration of saline or pI-pC, secondary mice transplanted with MLL-AF9-positive FoxO1/3/4^floxed; Mx1-Cre+ leukmic BM cells were euthanized. Leukemic BM cells were then isolated from each treatment condition (Saline (Ctrl) versus pI-pC (pI-pC)) were analyzed for the proportion of L-GMPs (lineage^low, Sca-1^−, cKit^hi, CD34^+, FcgRII/III^+, p=0.039; n=3).
as §1, with “leukemic” for “leukmic”, “mature myeloid cells (lineage^hi, CD11b^+, p=0.0098; n=3)” for “L-GMPs (lineage^low, Sca-1^−, cKit^hi, CD34^+, FcgRII/III^+, p=0.039; n=3).”
L-GMP and GMP populations were analyzed and sorted with a BD FACSARIA™ instrument (BD™ Biosciences). To analyze and isolate L-GMPs and GMPs, total BM cells were recovered from flushing the tibias and femurs of leukemic and healthy mice respectively with PBS supplemented with 2% FBS and 1% Penicillin/Streptomycin (F-PBS). […] For Phosphoflow experiments, cells were stained with cKit-Ax750 and CD34-antibodies in combination with phospho-AKT^Ser473-PE, phospho-AKT^Thr308-APC or phospho-S6^Ser235/236-APC antibodies and analyzed on a FACSAria according to the following protocol: • 1. […]

With polyinosine-polycytidyline [pI-pC] the L-GMPs was “immunophenotypic reduction” and the “lineage^hi, CD11b^hi(+) myeloid cells” value was “concomitant increase”.
